EC50 data for 18 compounds are collected here from patent US20230020329A1, “Annelated 9-hydroxy-1,8-dioxo-1,3,4,8-tetrahydro-2H-pyrido[1,2-a]pyrazine-7-carboxamides as HIV integrase inhibitors, methods of preparation and application thereof” (priority 2019, published 2023).

This assay concerns HIV-1 (IIIB strain). Kind of assay: Anti-HIV cytoprotection assay (XTT), HIV-1 IIIB in CEM-SS cells. It counts as cell-based. The settings on record: Human immunodeficiency virus 1, IIIB, CEM-SS, CEM-SS cell line; read-out: Inhibitory activity (EC50) against HIV-1 (IIIB strain). An excerpt:
a) Inhibitory Activity of the Lymphocytropic Virus Strain HIV-1 (IIIB) in the CEM-SS Cell Line.
The evaluation was done by ImQuest BioSciences, Inc. (Frederick, Md., USA). CEM-SS cells [Foley G. E. et al. Continuous Culture of Human Lymphoblasts from Peripheral Blood of a Child with Acute Leukemia. Cancer 1965, 18, 522-529] obtained through the NIH AIDS Research and Reference Reagent Program (Manassas, Va., USA) were passaged in T-75 flasks prior to use cell culture medium consisting of RPMI1640 medium (Lonza; Walkersville, Md., USA) supplemented with 10% heat inactivated fetal bovine serum (Gibco; Grand Island, N.Y.), […] L-glutamine (Lonza), […] penicillin (Lonza) and […] streptomycin (Lonza) for antiviral analysis. The CEM-SS cells were kept in RPMI 140 medium supplemented with 10% heat inactivated bovine fetal serum, 2 mM glutamine, 100 U/ml penicillin, and 100 μg/ml streptomycin.
A lymphocytropic HIV-1 IIIB strain [Popovic, M. et al. Detection, isolation, and continuous production of cytopathic retroviruses (HTLV-III) from patients with AIDS and pre-AIDS. Science. 1984, 224 (4648), 497-500] was chosen for a virus to be analyzed. The virus was obtained through the NIH AIDS Research and Reference Reagents Program and grown in CEM-SS cells to produce a stock virus pool. A pre-titrated aliquot of the virus was removed from the freezer (−80° C.) and allowed to slowly thaw to room temperature in a biological safety cabinet. The virus was diluted in a tissue culture medium so that the amount of virus added in 50 μl per well was sufficient to kill 85 to 95% of the cells 6 days after infection. HIV-1 IIIB was grown and titrated in CEM-SS cells. The inhibitory effect of […] was evaluated in CEM-SS cells as described earlier [Nara, P. L. at al. Simple, rapid, quantitative, syncytium-forming microassay for the detection of human immunodeficiency virus neutralizing antibody. AIDS Res. Hum. Retroviruses 1987, 3, 283-302.] in microtiter plate anti-HIV assays to quantitatively assess the ability of a compound to inhibit HIV-induced cell death. Quantification was carried out using 2,3-bis-(2-methoxy-4-nitro-5-[…])-(2H)-tetrazolium-5-carboxanilide (XTT) tetrazolium, which is metabolized to a stained formazan product through viable […] The compounds given in Table 1 were dissolved at 10 μM in DMSO and stored at −20° C.
Test materials were evaluated using antiviral assays in triplicate in concentrations of 30 and 10 nM. The compounds shown in table 1 were dissolved at 10 μM in DMSO and stored at −20° C. […] Sixty nanomolar concentrations of each compound (2 times that of the test concentration in the well) were prepared by diluting 10 μM DMSO stock 1:100 in cell culture medium (10 μl of compound added to 990 μl of the medium) followed by 1:10 dilution (10 μl of the compound was added to 90 μl of the medium), then 6 μl was added to 994 μl of the medium; […] μl was added to a 96-well microtiter plate in triplicate to ensure efficacy and one colorimetric well. Twenty nanomolar concentrations of each compound (twice as much as the test concentration in the well) were prepared by diluting 10 μM DMSO with the original 1:100 in cell culture medium (10 μl of the compound added to 990 μl of the medium) followed by diluting […] (10 μl of the compound was added to 900 μl of the medium), then 20 μl was added to 980 μl of the medium; 100 μl was added to a 96-well microtiter plate in triplicate to ensure efficacy and one colorimetric well.
Azidothymidine (AZT) was purchased from Sigma Aldrich (USA) and evaluated as a positive control compound in an antiviral assay using a six-concentration reaction curve on each assay plate.
Test compounds were initially evaluated for HIV-1 IIIB strain in CEM-SS cells at test concentrations of 30 and 10 nM. […]
In general terms: Formazan colour is commonly taken as a measure of viable cells.

pEC50: −log10 of the molar value.

Regarding `C[C@H]1CO[C@@H]2Cn3cc(C(=O)NCc4ccc5c(c4)OCO5)c(=O)c(O)c3C(=O)N12` [Compound 1.1.34, (3S,11aR)-N-(1,3-benzodioxol-5-ylmethyl)-6-hydroxy-3-methyl-5,7-dioxo-2,3,5,7,11,11a-hexahydro[1,3]oxazolo[3,2-a]pyrido[1,2-d]pyrazine-8-carboxamide], the negative logarithm of the EC50 (pEC50) was 8.00 to 8.70.
For `O=C(NCc1c(F)cc(F)nc1F)c1cn2c(c(O)c1=O)C(=O)N1[C@H]3CC[C@H](C3)O[C@@H]1C2` [Compound 1.3.2, (2R,5S,13aR)-8-hydroxy-N-[(2,4,6-trifluoropyridin-3-yl)methyl]-7,9-dioxo-2,3,4,5,7,9,13,13a-octahydro-2,5-methanopyrido[1′,2′:4,5]pyrazino[2,1-b][1,3]oxazepine-10-carboxamide] the value was 8.00 to 8.70.
As for `C[C@H]1CO[C@@H]2Cn3cc(C(=O)NCc4cc5ccccc5o4)c(=O)c(O)c3C(=O)N12` [Compound 1.1.32, (3S,11aR)-N-(1-benzofuran-2-ylmethyl)-6-hydroxy-3-methyl-5,7-dioxo-2,3,5,7,11,11a-hexahydro[1,3]oxazolo[3,2-a]pyrido[1,2-d]pyrazine-8-carboxamide], the pEC50 is 8.00 to 8.70.
For `C[C@H]1CO[C@@H]2Cn3cc(C(=O)NCc4nnc5n4CCCC5)c(=O)c(O)c3C(=O)N12` [Compound 1.1.61, (3S,11aR)-6-hydroxy-3-methyl-N-(5,6,7,8-tetrahydro[1,2,4]triazolo[4,3-a]pyridin-3-ylmethyl)-5,7-dioxo-2,3,5,7,11,11a-hexahydro[1,3]oxazolo[3,2-a]pyrido[1,2-d]pyrazine-8-carboxamide] the value was < 7.52; for `C[C@H]1CO[C@@]23CCC[C@@H]2n2cc(C(=O)NCc4c(F)cc(F)nc4F)c(=O)c(O)c2C(=O)N13` [Compound 2.2.3, (3aS,6S,13aS)-9-hydroxy-6-methyl-N-[(2,4,6-trifluoropyridin-3-yl)methyl]-8,10-dioxo-1,2,3,5,6,8,10,13a-octahydrocyclopenta[b][1,3]oxazolo[3,2-a]pyrido[1,2-d]pyrazine-11-carboxamide], 8.00 to 8.70; for `O=C(NCc1c(F)cncc1F)c1cn2c(c(O)c1=O)C(=O)N1[C@H]3CC[C@H](C3)O[C@@H]1C2` [Compound 1.3.3, (2R,5S,13aR)-8-hydroxy-N-[(3,5-difluoropyridin-4-yl)methyl]-7,9-dioxo-2,3,4,5,7,9,13,13a-octahydro-2,5-methanopyrido[1′,2′:4,5]pyrazino[2,1-b][1,3]oxazepine-10-carboxamide], 8.00 to 8.70.
In the case of `Cc1ccc(CNC(=O)c2cn3c(c(O)c2=O)C(=O)N2[C@@H](C)CO[C@@H]2C3)o1` [Compound 1.1.3, (3S,11aR)-6-hydroxy-3-methyl-N-[(5-methyl-2-furyl)methyl]-5,7-dioxo-2,3,5,7,11,11a-hexahydro[1,3]oxazolo[3,2-a]pyrido[1,2-d]pyrazine-8-carboxamide], the pEC50 is 8.00 to 8.70.
Consider `C[C@H]1CO[C@@H]2Cn3cc(C(=O)NCc4cn5cc(Cl)sc5n4)c(=O)c(O)c3C(=O)N12` [Compound 1.1.28, (3S,11aR)-6-hydroxy-3-methyl-N-[(2-chloroimidazo[2,1-b][1,3]thiazol-6-yl)methyl]-5,7-dioxo-2,3,5,7,11,11a-hexahydro[1,3]oxazolo[3,2-a]pyrido[1,2-d]pyrazine-8-carboxamide], for which the pEC50 was < 7.52.
Regarding `C[C@H]1CO[C@@H]2Cn3cc(C(=O)NCc4ccc5sccc5c4)c(=O)c(O)c3C(=O)N12` [Compound 1.1.31, (3S,11aR)-N-(1-benzothien-5-ylmethyl)-6-hydroxy-3-methyl-5,7-dioxo-2,3,5,7,11,11a-hexahydro[1,3]oxazolo[3,2-a]pyrido[1,2-d]pyrazine-8-carboxamide], the pEC50 was 8.00 to 8.70.
For the compound `Cc1nonc1CNC(=O)c1cn2c(c(O)c1=O)C(=O)N1[C@@H](C)CO[C@@H]1C2` [Compound 1.1.12, (3S,11aR)-6-hydroxy-3-methyl-N-[(4-methyl-1,2,5-oxadiazol-3-yl)methyl]-5,7-dioxo-2,3,5,7,11,11a-hexahydro[1,3]oxazolo[3,2-a]pyrido[1,2-d]pyrazine-8-carboxamide], the negative logarithm of the EC50 (pEC50) is 7.52 to 8.00.
As for `Cc1coc(CNC(=O)c2cn3c(c(O)c2=O)C(=O)N2[C@@H](C)CO[C@@H]2C3)n1` [Compound 1.1.9, (3S,11aR)-6-hydroxy-3-methyl-N-[(4-methyl-1,3-oxazol-2-yl)methyl]-5,7-dioxo-2,3,5,7,11,11a-hexahydro[1,3]oxazolo[3,2-a]pyrido[1,2-d]pyrazine-8-carboxamide], the pEC50 is < 7.52.
`Cc1nn2cc(CNC(=O)c3cn4c(c(O)c3=O)C(=O)N3[C@@H](C)CO[C@@H]3C4)nc2s1` [Compound 1.1.30, (3S,11aR)-6-hydroxy-3-methyl-N-[(2-methylimidazo[2,1-b][1,3,4]thiadiazol-6-yl)methyl]-5,7-dioxo-2,3,5,7,11,11a-hexahydro[1,3]oxazolo[3,2-a]pyrido[1,2-d]pyrazine-8-carboxamide]: the pEC50 was < 7.52.
`C[C@H]1CO[C@@H]2Cn3cc(C(=O)NCc4ccc5ccccc5n4)c(=O)c(O)c3C(=O)N12` [Compound 1.1.49, (3S,11aR)-6-hydroxy-3-methyl-N-(quinolin-2-ylmethyl)-5,7-dioxo-2,3,5,7,11,11a-hexahydro[1,3]oxazolo[3,2-a]pyrido[1,2-d]pyrazine-8-carboxamide]: the pEC50 is 8.00 to 8.70.
Take `C[C@@H]1CCO[C@H]2Cn3cc(C(=O)NCc4c(F)cncc4F)c(=O)c(O)c3C(=O)N12` [Compound 1.2.4, (4R,12aS)-7-hydroxy-N-[(3,5-difluoropyridin-4-yl)methyl]-4-methyl-6,8-dioxo-3,4,6,8,12,12a-hexahydro-2H-pyrido[1′,2′:4,5]pyrazino[2,1-b][1,3]oxazine-9-carboxamide]: the pEC50 was 8.00 to 8.70.
For `C[C@H]1CO[C@@H]2Cn3cc(C(=O)NCc4nc5cc(F)ccc5[nH]4)c(=O)c(O)c3C(=O)N12` [Compound 1.1.41, (3S,11aR)-6-hydroxy-3-methyl-N-[(5-ϕTopo-1H-benzimidazol-2-yl)methyl]-5,7-dioxo-2,3,5,7,11,11a-hexahydro[1,3]oxazolo[3,2-a]pyrido[1,2-d]pyrazine-8-carboxamide] the value was 7.52 to 8.00.
Take `C[C@H]1CO[C@@H]2Cn3cc(C(=O)NCc4c(F)ccnc4F)c(=O)c(O)c3C(=O)N12` [Compound 1.1.21, (3S,11aR)-6-hydroxy-N-[(2,4-difluoropyridin-3-yl)methyl]-3-methyl-5,7-dioxo-2,3,5,7,11,11a-hexahydro[1,3]oxazolo[3,2-a]pyrido[1,2-d]pyrazine-8-carboxamide]: the pEC50 was < 7.52.
For `C[C@@H]1CO[C@@]23CCC[C@@H]2n2cc(C(=O)NCc4c(F)cncc4F)c(=O)c(O)c2C(=O)N13` [Compound 2.1.2, (3aS,6R,13aS)-9-hydroxy-N-[(3,5-difluoropyridin-4-yl)methyl]-6-methyl-8,10-dioxo-1,2,3,5,6,8,10,13a-octahydrocyclopenta[b][1,3]oxazolo[3,2-a]pyrido[1,2-d]pyrazine-11-carboxamide], the pEC50 was 8.00 to 8.70.
Consider `C[C@H]1CO[C@@H]2Cn3cc(C(=O)NCc4n[nH]c5c4CCCCC5)c(=O)c(O)c3C(=O)N12` [Compound 1.1.62, (3S,11aR)-6-hydroxy-N-(1,4,5,6,7,8-hexahydrocyclohepta[c]pyrazol-3-ylmethyl)-3-methyl-5,7-dioxo-2,3,5,7,11,11a-hexahydro[1,3]oxazolo[3,2-a]pyrido[1,2-d]pyrazine-8-carboxamide], for which the negative-log EC50 (pEC50) was 8.00 to 8.70.

By pEC50 is commonly meant −log10 of the EC50, conventionally taken in molar units.
